Tests used:
[1] = test system: CHO (chinese hamster ovary); assay: Cell proliferation inhibition, Cell Titer-Glo, CHO; type: cell-based; conditions: Cricetulus griseus; cell proliferation assay, CHO cells
Experimental: (§1) IGF1R and other tyrosine kinase inhibitors can inhibit the proliferation of certain cancer cell lines indicating their possible therapeutic utility for treating the corresponding cancer types. Cancer cell lines of interest and control normal lines, including CHO, HEK293, BA/F3, MM1, H929, COLO205, PC3, DU145, MCF7, Panc1, ACHN, Hep G2, H460, K562, TT, U87-G, CAOV-3, SK-MEL5, Karpas 299, are plated in white, clear-bottomed 384-well cell culture plates at 2500-5000 cells per well and supplied with dilutions of tested compounds After a desired period of time (typically 3 days), the number of viable cells is quantitated by using Cell Titer-Glo Luminescent Cell Viability Assay (Promega), a cell proliferation assay system based on detection of total amount of ATP present as a measure of cell metabolic activity. The plated cells are mixed with the Cell Titer-Glo developing reagent and counted in a luminescence multiwell plate reader according to the standard manufacturer's protocol to generate IC50 curves for cell proliferation inhibition.
(§2) IGF1R and other tyrosine kinase inhibitors can inhibit the proliferation of certain cancer cell lines indicating their possible therapeutic utility for treating the corresponding cancer types. Cancer cell lines of interest and control normal lines, including CHO, HEK293, BA/F3, COLO205, PC3, DU145, MCF7, Panc1, ACHN, Hep G2, H460, K562, TT, U87-MG, CAOV-3, SK-MEL5, Karpas 299 and human multiple myeloma cell lines H929, MM1s, MM1r, UTMC2, CPM2, KMS11, My5, KMS12PE, My7, JJN3, KMS18, U266, SKMM2, RPMI-8226 are plated in white, clear-bottomed 384-well cell culture plates at 2500-5000 cells per well and supplied with dilutions of tested compounds After a desired period of time (typically 3 days), the number of viable cells is quantitated by using Cell Titer-Glo Luminescent Cell Viability Assay (Promega), a cell proliferation assay system based on detection of total amount of ATP present as a measure of cell metabolic activity. The plated cells are mixed with the Cell Titer-Glo developing reagent and counted in a luminescence multiwell plate reader according to the standard manufacturer's protocol to generate IC50 curves for cell proliferation inhibition. Results are typically reported as percent of growth (% viability =(OD72h(compound)−ODday0))/(OD72h(no compound)−ODday0). Alternatively, viable cells are quantitated by using the conventional colorimetric MTT assay. The MTT assay is based on the cleavage of the yellow tetrazolium salt MTT to purple formazan crystal by metabolic active cells. The formazan is then solubilized, and the concentration determined by optical density at 570 nm. The cells plated and incubated with a compound as described above are supplemented with the solution of MTT and incubated for 2-3 hours. The growth medium is removed and dimethyl sulfoxide is added into each well to dissolve the formazan. The absorbance is measured on an ELISA plate reader with a test wavelength of 570 nm and a background subtraction wavelength of 630 nm to obtain sample signal (OD570-OD630). […] The results are reported in terms of IC50 value for a particular compound and a cell line in the standard 3-day proliferation assay using Cell Titer-Glo. […] The results are reported in terms of IC50 value for a particular compound and a cell line in the standard 3-day proliferation assay using MTT assay.

Jak2 = molecular target: T1, Jak2 (Homo sapiens, UniProt O60674); assay: Tyrosine kinase assay (Kinase-Glo or AlphaScreen), Jak2; conditions: biochemical tyrosine kinase assay
T1 construct: 6×His- or GST-tagged kinase domain fragments of the corresponding RTKs expressed in baculovirus system; host or cells: baculovirus system
T1 sequence (O60674 849-1124 limits assumed, species assumed): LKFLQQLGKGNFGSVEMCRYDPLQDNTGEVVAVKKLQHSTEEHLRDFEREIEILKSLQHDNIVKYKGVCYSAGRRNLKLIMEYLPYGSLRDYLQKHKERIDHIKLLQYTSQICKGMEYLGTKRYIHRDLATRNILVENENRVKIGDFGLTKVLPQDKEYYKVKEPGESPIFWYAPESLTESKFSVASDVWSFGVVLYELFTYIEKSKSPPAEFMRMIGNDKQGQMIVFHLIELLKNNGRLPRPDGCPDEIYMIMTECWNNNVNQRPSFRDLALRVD
Outline: (§3)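 Recombinant His- or GST-tagged kinase domains from baculovirus were assayed with poly(Glu-Tyr, 4:1) substrate and 10 μM ATP in Tris-HCl pH 7.5 with Mg2+/Mn2+. Kinase-Glo: 37° C for 60 minutes, residual ATP read by luminescence. IC50 from non-linear regression over eight concentrations, 1 nM to 20 μM.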

Alk = molecular target: T2, Alk (Homo sapiens, UniProt Q9UM73); assay: Tyrosine kinase assay (Kinase-Glo or AlphaScreen), Alk; conditions: biochemical tyrosine kinase assay
T2 construct: 6×His- or GST-tagged kinase domain fragments of the corresponding RTKs expressed in baculovirus system; host or cells: baculovirus system
T2 sequence (Q9UM73 1116-1392 limits assumed, species assumed): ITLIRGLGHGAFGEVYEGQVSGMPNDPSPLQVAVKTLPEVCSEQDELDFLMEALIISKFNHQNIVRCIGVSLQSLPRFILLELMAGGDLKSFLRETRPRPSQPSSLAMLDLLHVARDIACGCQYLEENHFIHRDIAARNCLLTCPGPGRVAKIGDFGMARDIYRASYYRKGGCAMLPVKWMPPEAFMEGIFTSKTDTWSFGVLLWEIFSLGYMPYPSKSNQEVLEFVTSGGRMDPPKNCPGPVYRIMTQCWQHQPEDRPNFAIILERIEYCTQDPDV
Outline: as §3

IGF1R tyrosine kinase = molecular target: T3, IGF1R tyrosine kinase (Homo sapiens, UniProt P08069); assay: IGF1R tyrosine kinase assay (Kinase-Glo ATP depletion or PT66/PT100 AlphaScreen); conditions: biochemical tyrosine kinase assay
T3 construct: 6×His- or GST-tagged kinase domain fragments of the corresponding RTKs expressed in baculovirus system; host or cells: baculovirus system
T3 sequence (P08069 999-1274 limits assumed): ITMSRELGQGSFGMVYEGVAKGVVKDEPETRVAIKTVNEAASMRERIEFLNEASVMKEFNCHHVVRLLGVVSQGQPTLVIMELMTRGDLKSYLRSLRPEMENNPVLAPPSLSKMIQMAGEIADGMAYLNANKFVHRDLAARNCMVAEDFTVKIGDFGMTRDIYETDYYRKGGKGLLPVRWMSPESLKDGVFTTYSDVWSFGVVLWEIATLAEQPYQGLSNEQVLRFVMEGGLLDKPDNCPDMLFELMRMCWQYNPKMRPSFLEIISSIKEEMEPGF
Outline: as §3

[2] = test system: HEK293 (human normal embryonic kidney); assay: Cell proliferation inhibition, Cell Titer-Glo, HEK293; type: cell-based; conditions: cell proliferation assay, HEK293 cells, read-out: HEK 293 IC50
Experimental: as §1, §2

H929 (multiple myeloma) = assay: Cell proliferation inhibition, Cell Titer-Glo, H929; type: cell-based; conditions: Homo sapiens, NCI-H929; cell proliferation assay, H929 cells
Outline: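 Cells seeded at 2500-5000 per well with serially diluted compound for typically 3 days. Viable cells measured by ATP luminescence (Cell Titer-Glo); IC50 from proliferation-inhibition curves.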

InsR = molecular target: T4, InsR (Homo sapiens, UniProt P06213); assay: Tyrosine kinase assay (Kinase-Glo or AlphaScreen), InsR; conditions: biochemical tyrosine kinase assay
T4 construct: 6×His- or GST-tagged kinase domain fragments of the corresponding RTKs expressed in baculovirus system; host or cells: baculovirus system
T4 sequence (P06213 1023-1298 limits assumed, species assumed): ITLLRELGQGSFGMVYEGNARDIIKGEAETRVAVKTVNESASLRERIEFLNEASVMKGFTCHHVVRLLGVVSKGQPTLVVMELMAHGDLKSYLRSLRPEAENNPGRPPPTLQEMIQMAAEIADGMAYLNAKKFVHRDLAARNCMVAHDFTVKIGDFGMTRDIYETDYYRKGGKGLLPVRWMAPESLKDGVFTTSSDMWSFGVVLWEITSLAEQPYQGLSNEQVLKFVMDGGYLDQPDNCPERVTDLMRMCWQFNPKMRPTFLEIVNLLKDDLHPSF
Outline: as §3

Karpas-299 = assay: Cell proliferation inhibition, Cell Titer-Glo, Karpas-299; type: cell-based; conditions: Homo sapiens; cell proliferation assay, Karpas-299 cells
Outline: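 Karpas 299 cells were seeded into white, clear-bottomed 384-well culture plates at 2500-5000 cells per well and exposed to serial dilutions of test compounds for about 3 days. Viable cell numbers were then measured with the Cell Titer-Glo Luminescent Cell Viability Assay (Promega), which detects total ATP, and IC50 values for proliferation inhibition were derived.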

Ba/F3 = assay: Cell proliferation inhibition, Cell Titer-Glo, Ba/F3; type: cell-based; conditions: Mus musculus, BaF3; cell proliferation assay, Ba/F3 cells
Outline: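 Ba/F3 cells were seeded at 2500-5000 cells per well in white, clear-bottomed 384-well culture plates and exposed to serial dilutions of test compounds for 3 days. Cell Titer-Glo Luminescent Cell Viability Assay (Promega) reagent, which measures total ATP as an indicator of metabolic activity, was added. Luminescence was read on a multiwell plate reader to derive IC50 values for inhibition of proliferation.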

K562 = assay: Cell proliferation inhibition, Cell Titer-Glo, K562; type: cell-based; conditions: Homo sapiens; cell proliferation assay, K562 cells
Outline: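 K562 cells were seeded at 2500-5000 cells per well in white, clear-bottomed 384-well culture plates and treated with dilutions of test compounds for typically 3 days. Viable cells were quantified with the Cell Titer-Glo Luminescent Cell Viability Assay (Promega), which measures total ATP, read on a luminescence plate reader to derive IC50 values for proliferation inhibition.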

| SMILES | IC50 [1] [µM] | IC50 (Jak2) [µM] | IC50 (Alk) [µM] | IC50 (IGF1R tyrosine kinase) [µM] | IC50 [2] [µM] | IC50 (H929 (multiple myeloma)) [µM] | IC50 (InsR) [µM] | IC50 (Karpas-299) [µM] | IC50 (Ba/F3) [µM] | IC50 (K562) [µM] |
| --- | --- | --- | --- | --- | --- | --- | --- | --- | --- | --- |
| CCc1c(OC[C@H](O)CNc2cc[nH]c(=O)c2-c2nc3cc4c(cc3[nH]2)CN(C2CCN(C)CC2)C4=O)ccc2c1OCO2 [compound 162] | 5 to 15 | < 0.5 | 0.5 to 5 | < 0.5 | 5 to 15 | 5 to 15 | < 0.5 |  |  |  |
| Cc1ccc(OC[C@H](O)CNc2cc[nH]c(=O)c2-c2nc3cc4c(cc3[nH]2)CN(C2CCN(C)CC2)C4=O)c(Br)c1 [compound 166] | 5 to 15 | < 0.5 | 0.5 to 5 | < 0.5 | > 15 | 0.5 to 5 | < 0.5 |  |  |  |
| CN1CCC(N2Cc3cc4nc(-c5c(NC[C@@H](O)COc6ccc(F)cc6F)cc[nH]c5=O)[nH]c4cc3C2=O)CC1 [compound 148] | 5 to 15 | < 0.5 | 0.5 to 5 | < 0.5 | > 15 | 5 to 15 | < 0.5 |  |  |  |
| CN1CCC(N2Cc3cc4[nH]c(-c5c(NC[C@@H](O)COc6ccccc6Br)cc[nH]c5=O)nc4cc3C2=O)CC1 [compound 167] | > 15 | < 0.5 | 0.5 to 5 | < 0.5 | > 15 | 0.5 to 5 | < 0.5 |  |  |  |
| CN1CCC(N2Cc3cc4[nH]c(-c5c(NC[C@@H](O)COc6ccc7c(c6Cl)OCO7)cc[nH]c5=O)nc4cc3C2=O)CC1 [compound 163] | > 15 | < 0.5 | 0.5 to 5 | < 0.5 | 5 to 15 | 5 to 15 | < 0.5 |  |  |  |
| CCc1cc2c(cc1OC[C@H](O)CNc1cc[nH]c(=O)c1-c1nc3cc4c(cc3[nH]1)C(=O)N(C1CCN(C)CC1)C4)OCO2 [compound 156] | > 15 | < 0.5 | 0.5 to 5 | < 0.5 |  | 5 to 15 | < 0.5 |  |  |  |
| CN1CCC(N2Cc3cc4[nH]c(-c5c(NC[C@@H](O)COc6c(F)cc(F)cc6Br)cc[nH]c5=O)nc4cc3C2=O)CC1 [compound 164] | 5 to 15 | < 0.5 | 0.5 to 5 | < 0.5 | 5 to 15 | 5 to 15 | < 0.5 |  |  |  |
| COc1ccc(OC[C@H](O)CNc2cc[nH]c(=O)c2-c2nc3cc4c(cc3[nH]2)CN(C2CCN(C)CC2)C4=O)c(Cl)c1 [compound 146] | > 15 | < 0.5 | 0.5 to 5 | < 0.5 | > 15 | 5 to 15 | < 0.5 |  |  |  |
| CN1CCC(N2Cc3cc4nc(-c5c(N[C@@H](CO)Cc6ccccc6)cc[nH]c5=O)[nH]c4cc3C2=O)CC1 [compound 160] | > 15 | 0.5 to 5 | 0.5 to 5 | 0.5 to 5 |  | 5 to 15 | < 0.5 |  |  |  |
| Cc1ccc(F)c(OC[C@H](O)CNc2cc[nH]c(=O)c2-c2nc3cc4c(cc3[nH]2)C(=O)N(C2CCN(C)CC2)C4)c1Cl [compound 147] | > 15 | < 0.5 | 5 to 15 | < 0.5 | > 15 | 0.5 to 5 | < 0.5 |  |  |  |
| CN1CCC(N2Cc3cc4nc(-c5c(NC[C@@H](O)COc6ccccc6C(F)(F)F)cc[nH]c5=O)[nH]c4cc3C2=O)CC1 [compound 149] | > 15 | < 0.5 | < 0.5 | < 0.5 | 5 to 15 | 0.5 to 5 | < 0.5 |  |  |  |
| CC(=N)N1CCC(N2C(=O)c3cc4nc(-c5c(NC[C@@H](O)COc6ccc(C)cc6C)cc[nH]c5=O)[nH]c4cc3C2=O)CC1 [compound 161] | > 15 | 0.5 to 5 | 0.5 to 5 | < 0.5 | > 15 | 5 to 15 | < 0.5 | 5 to 15 | > 15 | > 15 |
| Cc1c(OC[C@H](O)CNc2cc[nH]c(=O)c2-c2nc3cc4c(cc3[nH]2)CN(C2CCN(C)CC2)C4=O)ccc2c1OCO2 [compound 169] | > 15 | < 0.5 | 0.5 to 5 | < 0.5 | > 15 | > 15 | < 0.5 |  |  |  |
| CN1CCC(N2Cc3cc4nc(-c5c(NC[C@@H](O)COc6c(F)cccc6Cl)cc[nH]c5=O)[nH]c4cc3C2=O)CC1 [compound 153] | > 15 | < 0.5 | 5 to 15 | < 0.5 |  | 5 to 15 | < 0.5 |  |  |  |
| CN1CCC(N2Cc3cc4[nH]c(-c5c(NC[C@@H](O)COc6ccc(F)cc6Br)cc[nH]c5=O)nc4cc3C2=O)CC1 [compound 165] | 5 to 15 | < 0.5 | 0.5 to 5 | < 0.5 | > 15 | 0.5 to 5 | < 0.5 |  |  |  |
| COc1cccc(OC[C@H](O)CNc2cc[nH]c(=O)c2-c2nc3cc4c(cc3[nH]2)C(=O)N(C2CCN(C)CC2)C4)c1C [compound 159] | > 15 | < 0.5 | 5 to 15 | < 0.5 |  | 5 to 15 | < 0.5 |  |  |  |
| CN1CCC(N2Cc3cc4[nH]c(-c5c(NC[C@@H](O)COc6cc(F)c(F)cc6Br)cc[nH]c5=O)nc4cc3C2=O)CC1 [compound 168] | > 15 | < 0.5 | 0.5 to 5 | < 0.5 | > 15 | 5 to 15 | < 0.5 |  |  |  |
| CN1CCC(N2Cc3cc4nc(-c5c(NC[C@@H](O)COc6c(F)ccc(F)c6Cl)cc[nH]c5=O)[nH]c4cc3C2=O)CC1 [compound 155] | > 15 | < 0.5 | 5 to 15 | < 0.5 |  | 5 to 15 | < 0.5 |  |  |  |
